Measured values reported in article PMC2813186 (Biochemistry, 2009).
Ends that are not written are not given here.

Assays:
Prep [1] = target: T1, Prep (Mus musculus, UniProt Q9QUR6); test: Prep inhibition with CGRP; type: biochemical
Prep [2] = test: CNS tissue; conditions: WT mice (C57BL/6), up to 4 hours
recombinant Prep = test: recombinant Prep; conditions: mouse, 25°C, up to 60 minutes
Prep [3] = target: T1, Prep; test: label-free LC-MS peptidomics of CNS tissues, S17092 versus vehicle treated mice; type: in vivo; conditions: S17092 30 mg/kg i.p.

T1 sequence (Q9QUR6 whole entry): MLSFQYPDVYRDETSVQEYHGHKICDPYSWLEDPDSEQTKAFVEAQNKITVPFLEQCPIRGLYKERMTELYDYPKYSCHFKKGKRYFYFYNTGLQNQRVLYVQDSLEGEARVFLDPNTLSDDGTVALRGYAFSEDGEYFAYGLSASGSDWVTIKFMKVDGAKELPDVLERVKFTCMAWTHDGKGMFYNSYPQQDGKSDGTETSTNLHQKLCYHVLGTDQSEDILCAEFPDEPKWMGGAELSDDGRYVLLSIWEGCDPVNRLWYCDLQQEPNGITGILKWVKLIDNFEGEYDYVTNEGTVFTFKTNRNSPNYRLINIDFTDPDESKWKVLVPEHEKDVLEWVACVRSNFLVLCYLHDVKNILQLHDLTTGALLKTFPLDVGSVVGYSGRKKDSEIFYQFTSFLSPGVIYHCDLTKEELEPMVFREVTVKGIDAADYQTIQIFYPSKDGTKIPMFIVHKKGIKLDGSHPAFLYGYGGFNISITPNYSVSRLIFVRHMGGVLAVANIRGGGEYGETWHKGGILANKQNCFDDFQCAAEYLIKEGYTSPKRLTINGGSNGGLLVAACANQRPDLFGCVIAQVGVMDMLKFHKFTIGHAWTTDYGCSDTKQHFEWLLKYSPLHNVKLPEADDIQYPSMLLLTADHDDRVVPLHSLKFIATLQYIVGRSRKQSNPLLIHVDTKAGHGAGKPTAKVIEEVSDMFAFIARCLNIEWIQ

Compound: CC(C)C[C@H](NC(=O)CNC(=O)[C@H](C)NC(=O)[C@H](CC(C)C)NC(=O)[C@H](CCCNC(=N)N)NC(=O)[C@H](Cc1c[nH]cn1)NC(=O)[C@@H](NC(=O)[C@@H](NC(=O)[C@@H]1CSSC[C@H](NC(=O)[C@@H](N)CO)C(=O)N[C@@H](CC(N)=O)C(=O)N[C@@H]([C@@H](C)O)C(=O)N[C@@H](C)C(=O)N[C@@H]([C@@H](C)O)C(=O)N1)C(C)C)[C@@H](C)O)C(=O)N[C@@H](CC(C)C)C(=O)N[C@@H](CO)C(=O)N[C@@H](CCCNC(=N)N)C(=O)N[C@@H](CO)C(=O)NCC(=O)NCC(=O)N[C@H](C(=O)N[C@H](C(=O)N[C@@H](CCCCN)C(=O)N[C@@H](CC(=O)O)C(=O)N[C@@H](CC(N)=O)C(=O)N[C@@H](Cc1ccccc1)C(=O)N[C@H](C(=O)N1CCC[C@H]1C(=O)N[C@H](C(=O)N[C@@H](CC(N)=O)C(=O)N[C@H](C(=O)NCC(=O)N[C@@H](CO)C(=O)N[C@@H](CCC(=O)O)C(=O)N[C@@H](C)C(=O)N[C@@H](Cc1ccccc1)C(N)=O)C(C)C)[C@@H](C)O)C(C)C)C(C)C)C(C)C [CGRP(1–37), calcitonin gene-related peptide]
- IC50 (Prep [1]): 2 µM

Compound: APPEPVPPPRAAPAPTHV
- fragment found (Prep [2]): Vgf(490–502)

Compound: GGVVKDNFVPTNVGSEAF-NH2
- fragment found (recombinant Prep): CGRP(30–37)

Compound: GGVVKDNFVPTNVGSEAF-NH2 [CGRP(20–37)]
- Levels of Prep substrates in the spinal cord 1 hour and 4 hours after i.p. S17092 administration (Prep [3]): significantly elevated at 1 hour (gray bar) and 4 hours

Compound: MDELYPMEPEEEANGGEILA
- fragment found (Prep [2]): Penk(123–133)
